Test results: PMC3527569, “Anti-Inflammatory and Vasoprotective Activity of a Retroviral-Derived Peptide, Homologous to Human Endogenous Retroviruses: Endothelial Cell Effects” (PLoS ONE, 2012)
Where a SMILES comes first, the peptide text is derived from it. Bridges are numbered along the chain shown (N, C = ends). Roman numbers before positions name the chains, in order.

Legend:
LTB4 = test: Zymosan-induced LTB4 release by adherent human PBMC; assay type: cell-based; conditions: 1 h peptide then Zymosan 90 min, IC50 estimated from graph
Experimental: Platelet Activating Factor (PAF) and Leukotriene B4 (LTB4) Assays: PBMC were prepared as described above and adjusted to 3.3 x 10^6 cells/ml in RPMI-1640 medium containing 5 mg/ml HSA (Sigma, St. Louis, MO). To each well of a 48-well tissue culture plate was added 0.3 ml of cell suspension. The plate was incubated for 2 h at 37°C and 5% CO2 to allow cells to adhere. The wells were then washed 3X with HHBSS (Hank’s Balanced Salt Solution with 5 mg/ml HSA) at room temperature (RT). One-hundred seventy-five µL of HHBSS or test material in HHBSS was then added to each well and the plates incubated for 1 h at 37°C and 5% CO2. Samples were set up in quadruplicate. To each of duplicate wells for each sample was then added 175 µL of HHBSS or HHBSS containing 600 µg/ml of Zymosan (Sigma, St. Louis, MO). The plates were then incubated for 90 min at 37°C and 5% CO2. The plates were centrifuged and supernatants removed for quantitation of PAF or LTB4 according to the kit manufacturer’s (Amersham Pharmacia; Piscataway, NJ) instructions. The released PAF or LTB4 concentration was determined from a standard curve using standards provided with each kit.

TF = test: Monocyte-associated tissue factor (TF) ELISA; assay type: cell-based; conditions: human PBMC cultured 18-24 h with LPS; cell lysate, IMMUBIND Tissue Factor ELISA; IC50 estimated from graph
Experimental: Tissue Factor (TF): Monocyte-associated TF was quantitated in the following manner. PBMC were cultured in 48-well tissue culture plates as described below for PAF and LTB4 assays. At the end of the culture period (18-24 h) the supernatants were removed and stored frozen for cytokine assays. The wells of the plates were washed once with PBS and to each well was added 100 µL of Triton X-100 (10% [v/v] in H2O; Sigma, St. Louis, MO). The plates were placed on an orbital shaker for 12-18 h at 4°C and a speed of ~ 125 rpm. To each well was added 900 µL of sample buffer (10 mM PBS, pH 7.4, with 1% [w/v] BSA). The contents of each well were mixed well and removed for quantitation of TF using an IMMUBIND® Tissue Factor ELISA kit (American Diagnostica; Stamford, CT) according to the manufacturer’s instructions. Samples were diluted 1:10 in sample buffer prior to being assayed.

Adhesion = test: Monocyte adhesion to endothelial cells (HUVEC); assay type: cell-based, human; conditions: calcein-labelled PBMC on HUVEC, TNF-α stimulated; peptide 10 nM-100 µM
Experimental: Monocyte Adhesion to Endothelial Cells: To each well of a 96-well tissue culture plate was added 100 µL of HUVEC at 2 x 10^4 cells/ml. The plates were then incubated 48 h at 37°C and 5% CO2. PBMC, prepared as above, were washed once in serum-free RPMI-1640 medium. Calcein-AM (Sigma; St. Louis, MO) was added to a final concentration of 10 µg/ml, the cells incubated 30 min at 37°C, and then washed once with serum-free RPMI-1640. The cells were then washed an additional time with Complete Medium and resuspended to a concentration of 3 x 10^6/ml in Complete Medium. For each concentration of compound to be tested, 200 µL of labeled PBMC was incubated with 200 µL of test compound (2X desired final concentration) in polypropylene tubes. Similarly, for each concentration of compound to be tested, 50 µL of medium was removed from a well of the plated HUVEC and 50 µL of medium containing the test compound (2X desired final concentration) was added. Both tubes and plates were incubated 1 h at 37°C in 5% CO2. All peptides were tested at log10 concentrations of 10 nM to 100 µM. […] The plate was then read on a fluorescent spectrophotometer with filter settings of λ = 485exc/530emi. […] The plate was blotted to remove any media and read again on the fluorescent spectrophotometer. Percent of Maximum Adhesion (% Max. Adh.) was calculated as: […]

Platelet Aggregation = test: Platelet aggregation; assay type: cell-based, human; conditions: for IC50: human blood cells
HUVEC = test: [125I]-MN20054 binding/uptake by HUVEC; parameters: species or system human; conditions: 100-fold excess unlabeled peptide, 60 min; for inhibition of association of [125I]-MN20054 with HUVEC: 37°C, triplicate wells (Figure 6C)
Experimental: For binding/uptake studies on endothelial cell, HUVEC were grown to confluence in 12-well tissue culture plates. Forty pmol of [^125I]-MN20054 (∼20 Ci/mmol) in PBS with 0.5% BSA, pH 7.5, was added in a volume of 1.0 ml in the presence or absence of a 100-fold excess of the indicated competitor. The plates were allowed to incubate for 1 h at 37°C on a rocking platform and the wells were aspirated and washed 3X with 2.0 ml of ice-cold PBS/BSA. One ml of 1.0 N NaOH was added to each well for 30 min at RT to solubilize the cells and then 0.9 ml was removed from each well and counted in a gamma scintillation spectrophotometer.

[1] = system: nitrate in HUVEC supernatants; test: NO release (nitrate as nitrite) from HUVEC; assay type: cell-based, human; conditions: 50 µM peptide
Experimental: HUVEC were grown to 80–90% confluence in 12-well tissue culture plates using defined media provided by Cambrex and supplemented with 10% FBS. Triplicate wells were incubated with either media alone or media containing 50 µM of the indicated peptide. Supernatant samples were removed from each well at 6 h and 24 h post peptide addition and assayed for NO release as measured by the presence of nitrate (converted to nitrite) using a kit supplied by Oxford Biomedical Research (Rochester Hill, MI) according to the manufacturer's instructions.

Molecule: CC(C)C[C@H](NC(=O)CNC(=O)CNC(=O)[C@H](CCC(=O)O)NC(=O)[C@H](CCCCN)NC(=O)[C@H](CC(C)C)NC(=O)[C@H](Cc1ccccc1)NC(=O)[C@H](CC(C)C)NC(=O)[C@H](CC(C)C)NC(=O)[C@H](CC(=O)O)NC(=O)[C@H](CC(C)C)NC(=O)CNC(=O)[C@H](CCCNC(=N)N)NC(=O)[C@H](CCCNC(=N)N)NC(=O)[C@H](CC(N)=O)NC(=O)[C@H](CCC(N)=O)NC(=O)[C@@H](N)CC(C)C)C(=O)N[C@@H](CSSC[C@H](NC(=O)[C@H](CC(C)C)NC(=O)CNC(=O)CNC(=O)[C@H](CCC(=O)O)NC(=O)[C@H](CCCCN)NC(=O)[C@H](CC(C)C)NC(=O)[C@H](Cc1ccccc1)NC(=O)[C@H](CC(C)C)NC(=O)[C@H](CC(C)C)NC(=O)[C@H](CC(=O)O)NC(=O)[C@H](CC(C)C)NC(=O)CNC(=O)[C@H](CCCNC(=N)N)NC(=O)[C@H](CCCNC(=N)N)NC(=O)[C@H](CC(N)=O)NC(=O)[C@H](CCC(N)=O)NC(=O)[C@@H](N)CC(C)C)C(=O)O)C(=O)O [MN10021] (I: H-LQNRRGLDLLFLKEGGLC-OH / II: H-LQNRRGLDLLFLKEGGLC-OH; disulfide I:18-II:18)
- IC50 (LTB4): 6.2 µM
- IC50 (TF): 12.5 µM
- IC50 (Adhesion): > 100 µM
- IC50 (Platelet Aggregation): 5 µM
- effect on ADP- and epinephrine-induced human platelet aggregation (Platelet Aggregation; in vitro, data not shown): inhibit
- inhibition of binding/uptake of [125I]-MN20054 by HUVEC (HUVEC; 37°C (Figure 7)): ~75%
- inhibition of association of [125I]-MN20054 with HUVEC (HUVEC): 77%
- nitrate release (as measured by nitrite assay) from HUVEC ([1]; 6 h or ON): induced nitrate release

Molecule: H-LGGEKLFLLDGRNQLC-OH (disulfide (positions not given here)) [MN20050]
- IC50 (LTB4): > 100 µM
- IC50 (TF): > 100 µM
- IC50 (Adhesion): > 100 µM
- IC50 (Platelet Aggregation): > 100 µM
- inhibition of association of [125I]-MN20054 with HUVEC (HUVEC): no significant inhibition
- nitrate release, percent of MN10021 ([1]; 6 h and ON incubations): ≤ 25%
